Laboratory results reported in patent US20260317324A1, “BIFUNCTIONAL COMPOUNDS FOR DEGRADING BRAF VIA UBIQUITIN PROTEOSOME PATHWAY” (Nurix Therapeutics, Inc., priority 2023, published 2026).

Experiments:
Type in all cases: cell-based
[1] = biological target: T1, BRAF G466V (Homo sapiens, UniProt P15056, G466V); experiment: BRAF HiBiT degradation assay, C-terminal HiBiT-tagged BRAF G466V overexpressed in HCT-116 BRAF−/− cells (clone 8), Nano-Glo HiBiT Lytic assay
T1 construct: Horizon Discovery (HCT-116 BRAF−/− cells); host or cells: HCT-116 BRAF−/− cells, clone 8, lentiviral transduction
T1 sequence (P15056 whole entry G466V): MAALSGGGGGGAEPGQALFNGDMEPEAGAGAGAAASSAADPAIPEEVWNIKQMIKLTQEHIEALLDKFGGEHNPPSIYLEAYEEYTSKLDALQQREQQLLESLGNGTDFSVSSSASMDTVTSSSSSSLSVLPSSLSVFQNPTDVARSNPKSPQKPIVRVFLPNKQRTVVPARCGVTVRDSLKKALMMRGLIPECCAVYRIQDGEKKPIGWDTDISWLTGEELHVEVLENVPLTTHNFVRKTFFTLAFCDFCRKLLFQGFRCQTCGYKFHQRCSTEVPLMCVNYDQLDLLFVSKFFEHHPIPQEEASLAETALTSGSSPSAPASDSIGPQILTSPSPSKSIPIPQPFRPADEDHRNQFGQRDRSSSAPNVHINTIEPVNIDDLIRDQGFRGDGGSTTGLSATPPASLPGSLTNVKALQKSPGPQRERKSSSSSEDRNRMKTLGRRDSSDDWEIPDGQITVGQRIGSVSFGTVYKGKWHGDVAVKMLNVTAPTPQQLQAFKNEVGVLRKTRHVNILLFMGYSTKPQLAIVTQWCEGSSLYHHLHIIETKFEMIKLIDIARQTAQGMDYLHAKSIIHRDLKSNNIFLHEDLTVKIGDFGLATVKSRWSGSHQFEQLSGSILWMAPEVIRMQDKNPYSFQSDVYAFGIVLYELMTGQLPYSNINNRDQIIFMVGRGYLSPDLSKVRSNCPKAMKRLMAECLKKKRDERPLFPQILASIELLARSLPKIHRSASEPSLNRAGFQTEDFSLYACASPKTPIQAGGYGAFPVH
In short: (§1)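 Luminescence from the lytic HiBiT reagent, read after 10 min at room temperature, measured tagged BRAF remaining in lentivirally transduced HCT-116 BRAF−/− cells. Compounds were tested from 1 μM to 0.01 nM in half-log steps at 0.2% DMSO. DC50 values were fitted at 50% remaining.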

[2] = biological target: T2, BRAF V600E (Homo sapiens, UniProt P15056, V600E); experiment: BRAF HiBiT degradation assay, C-terminal HiBiT-tagged BRAF V600E A375 cells (clone 1F10), Nano-Glo HiBiT Lytic assay; details: for Dmax: A-375
T2 construct: endogenous C-terminal HiBiT fusion tag on BRAF V600E allele; endogenous in cells; host or cells: A375 clone 1F10 (CRISPR-Cas9 knock-in of the HiBiT tag; parental A375 from ATCC)
T2 sequence (P15056 whole entry V600E, the tested form may be a part): as the sequence (P15056 whole entry G466V) above, with V466G, V600E counted along it
In short: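 Endogenous BRAF V600E-HiBiT A375 (1F10), 10,000 cells/well, 24 h preculture; cpd 11-pt, 1 μM–0.01 nM half-log, n=2, 0.2% DMSO; HiBiT lytic detection 10 min RT; DC50 = fitted conc at Y=50; Obs. Dmax vs DMSO.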

[3] = biological target: T3, BRAF G469A (Homo sapiens, UniProt P15056, G469A); experiment: BRAF HiBiT degradation assay, C-terminal HiBiT-tagged BRAF G469A overexpressed in HCT-116 BRAF−/− cells (clone 34), Nano-Glo HiBiT Lytic assay
T3 construct: Horizon Discovery (HCT-116 BRAF−/− cells); host or cells: HCT-116 BRAF−/− cells, clone 34, lentiviral transduction
T3 sequence (P15056 whole entry G469A): as the sequence (P15056 whole entry G466V) above, with V466G, G469A counted along it
In short: as §1

[4] = biological target: T4, BRAF D594G (Homo sapiens, UniProt P15056, D594G); experiment: BRAF HiBiT degradation assay, C-terminal HiBiT-tagged BRAF D594G overexpressed in HCT-116 BRAF−/− cells (clone 63), Nano-Glo HiBiT Lytic assay
T4 construct: Horizon Discovery (HCT-116 BRAF−/− cells); host or cells: HCT-116 BRAF−/− cells, clone 63, lentiviral transduction
T4 sequence (P15056 whole entry D594G): as the sequence (P15056 whole entry G466V) above, with V466G, D594G counted along it
In short: as §1

[5] = BRAF G466V (Class 3), HCT-116 BRAF−/− cells, DC50 at 50% degradation
[6] = BRAF G466V (Class 3), HCT-116 BRAF−/− cells, observed Dmax relative to DMSO control
[7] = A375 (BRAF V600E, Class 1), DC50 at 50% degradation
[8] = A375 (BRAF V600E, Class 1), observed Dmax, % protein degraded relative to DMSO control
[9] = BRAF G469A (Class 2), HCT-116 BRAF−/− cells, DC50 at 50% degradation
[10] = BRAF G469A (Class 2), HCT-116 BRAF−/− cells, observed Dmax relative to DMSO control
[11] = BRAF D594G (Class 3), HCT-116 BRAF−/− cells, DC50 at 50% degradation
[12] = BRAF D594G (Class 3), HCT-116 BRAF−/− cells, observed Dmax relative to DMSO control
[13] = BRAF G466V, DC50 at 50%: fitted conc. at Y=50
[14] = HCT-116, BRAF G466V, percentage protein degraded at maximal compound effect relative to DMSO
[15] = A375 (BRAF V600E), DC50 at 50%: fitted conc. at Y=50
[16] = A375 (BRAF V600E), percentage protein degraded at maximal compound effect relative to DMSO
[17] = Class 2, BRAF G469A, DC50 at 50%: fitted conc. at Y=50
[18] = HCT-116, Class 2, BRAF G469A, percentage protein degraded at maximal compound effect relative to DMSO
[19] = BRAF D594G, DC50 at 50%: fitted conc. at Y=50
[20] = HCT-116, BRAF D594G, percentage protein degraded at maximal compound effect relative to DMSO

Compound | DC50 [1, 5] [nM] | Dmax [1, 6] [%] | DC50 [2, 7] [nM] | Dmax [2, 8] [%] | DC50 [3, 9] [nM] | Dmax [3, 10] [%] | DC50 [4, 11] [nM] | Dmax [4, 12] [%] | DC50 [1, 13] [nM] | Dmax [1, 14] [%] | DC50 [2, 15] [nM] | Dmax [2, 16] [%] | DC50 [3, 17] [nM] | Dmax [3, 18] [%] | DC50 [4, 19] [nM] | Dmax [4, 20] [%]
CCCS(=O)(=O)Nc1cccc(-c2nc(C(C)(C)C)sc2-c2ccnc(Nc3cccc(OC4CCN(CC5(C)CCN(c6ccc(C7CCC(=O)NC7=O)cn6)CC5)CC4)c3)n2)c1F (racemic) [Compound 68, Rac-N-{3-[2-tert-butyl-5-(2-{[3-({1-[(1-{5-[(3R)-2,6-dioxopiperidin-3-yl]pyridin-2-yl}-4-methylpiperidin-4-yl)methyl]piperidin-4-yl}oxy)phenyl]amino}pyrimidin-4-yl)-1,3-thiazol-4-yl]-2-fluorophenyl}propane-1-sulfonamide] |  |  |  |  |  |  |  |  | 50 to 500 | 30 to 70 | 10 to 50 | > 70 | 50 to 500 | 30 to 70 | > 500 | 30 to 70
CCCS(=O)(=O)Nc1cccc(-c2nc(C3CCC4(CC3)CN(C(=O)CCCCCc3ccc5c(c3)C(=O)N(C3CCC(=O)NC3=O)C5)C4)sc2-c2ccnc(N)n2)c1F (racemic) [Compound 234, Rac-N-{3-[5-(2-aminopyrimidin-4-yl)-2-[2-(6-{2-[(3R)-2,6-dioxopiperidin-3-yl]-3-oxo-2,3-dihydro-1H-isoindol-5-yl}hexanoyl)-2-azaspiro[3.5]nonan-7-yl]-1,3-thiazol-4-yl]-2-fluorophenyl}propane-1-sulfonamide] |  |  |  |  |  |  |  |  | 10 to 50 | 30 to 70 | < 10 | > 70 | > 500 | < 30 | < 10 | 30 to 70
CCN(C)S(=O)(=O)Nc1cccc(-c2nc(C(C)(C)C)sc2-c2ccnc(Nc3ccc(N4CCN(C(=O)CN5CCc6cc(C7CCC(=O)NC7=O)ccc6C5)CC4)c(F)c3)n2)c1F (racemic) [Compound 28, Rac-(3R)-3-[2-(2-{4-[4-({4-[2-tert-butyl-4-(3-{[ethyl(methyl)sulfamoyl]amino}-2-fluorophenyl)-1,3-thiazol-5-yl]pyrimidin-2-yl}amino)-2-fluorophenyl]piperazin-1-yl}-2-oxoethyl)-1,2,3,4-tetrahydroisoquinolin-6-yl]piperidine-2,6-dione] |  |  |  |  |  |  |  |  | < 10 | 30 to 70 | < 10 | > 70 | 10 to 50 | 30 to 70 | 10 to 50 | 30 to 70
CCCS(=O)(=O)Nc1cccc(-c2nc(C(C)(C)C)sc2-c2ccnc(Nc3ccc(N4CCN(CC5CCN(c6ccc([C@H]7CCC(=O)NC7=O)cc6)CC5)CC4)cc3)n2)c1F [Compound 59, N-[3-(2-tert-butyl-5-{2-[(4-{4-[(1-{4-[(3R)-2,6-dioxopiperidin-3-yl]phenyl}piperidin-4-yl)methyl]piperazin-1-yl}phenyl)amino]pyrimidin-4-yl}-1,3-thiazol-4-yl)-2-fluorophenyl]propane-1-sulfonamide] |  |  |  |  |  |  |  |  | < 10 | > 70 | 10 to 50 | > 70 | > 500 | 30 to 70 | 10 to 50 | 30 to 70
CCCS(=O)(=O)Nc1cccc(-c2nc(C3CCC4(CC3)CN(C(=O)C3CCN(c5ccc6c(c5)C(=O)N(C5CCC(=O)NC5=O)C6=O)CC3)C4)sc2-c2ccnc(N)n2)c1F (racemic) [Compound 244, Rac-N-{3-[5-(2-aminopyrimidin-4-yl)-2-[2-(1-{2-[(3R)-2,6-dioxopiperidin-3-yl]-1,3-dioxo-2,3-dihydro-1H-isoindol-5-yl}piperidine-4-carbonyl)-2-azaspiro[3.5]nonan-7-yl]-1,3-thiazol-4-yl]-2-fluorophenyl}propane-1-sulfonamide] |  |  |  |  |  |  |  |  | 10 to 50 | 30 to 70 | < 10 | > 70 | > 500 | < 30 | < 10 | 30 to 70
O=C1CCC(c2ccc(N3CCC(CN4CCN(c5ccc(-n6cc(-c7cc(Cl)cc(NS(=O)(=O)N8CCCC8)c7F)c(-c7ccncc7)n6)nc5)CC4)CC3)nc2)C(=O)N1 (racemic) [Compound 288, Rac-N-{5-chloro-3-[1-(5-{4-[(1-{5-[(3R)-2,6-dioxopiperidin-3-yl]pyridin-2-yl}piperidin-4-yl)methyl]piperazin-1-yl}pyridin-2-yl)-3-(pyridin-4-yl)-1H-pyrazol-4-yl]-2-fluorophenyl}pyrrolidine-1-sulfonamide] | < 10 | > 70 | < 10 | > 70 | < 10 | > 70 | < 10 | > 70 |  |  |  |  |  |  |  | 

The remaining lines, values ahead:

DC50 [1, 5] [nM] | Dmax [1, 6] [%] | DC50 [2, 7] [nM] | Dmax [2, 8] [%] | DC50 [3, 9] [nM] | Dmax [3, 10] [%] | DC50 [4, 11] [nM] | Dmax [4, 12] [%] | DC50 [1, 13] [nM] | Dmax [1, 14] [%] | DC50 [2, 15] [nM] | Dmax [2, 16] [%] | DC50 [3, 17] [nM] | Dmax [3, 18] [%] | DC50 [4, 19] [nM] | Dmax [4, 20] [%] | Compound
< 10 | > 70 | < 10 | > 70 | 10 to 50 | 30 to 70 | < 10 | > 70 |  |  |  |  |  |  |  |  | O=C1CCC(c2ccc(N3CCC(CN4CCN(c5ccc(-n6cc(-c7cc(Cl)cc(NS(=O)(=O)N8CCCC8)c7F)c(-c7ccncc7)n6)cc5)CC4)CC3)c(F)c2)C(=O)N1 (racemic) [Compound 347, Rac-N-{5-chloro-3-[1-(4-{4-[(1-{4-[(3R)-2,6-dioxopiperidin-3-yl]-2-fluorophenyl}piperidin-4-yl)methyl]piperazin-1-yl}phenyl)-3-(pyridin-4-yl)-1H-pyrazol-4-yl]-2-fluorophenyl}pyrrolidine-1-sulfonamide]
< 10 | > 70 | < 10 | > 70 | 10 to 50 | 30 to 70 | < 10 | 30 to 70 |  |  |  |  |  |  |  |  | O=C1CCC(c2ccc(N3CCC(CN4CCN(c5cc(F)c(-n6cc(-c7cc(Cl)cc(NS(=O)(=O)N8CCCC8)c7F)c(-c7ccncc7)n6)cc5F)CC4)CC3)nc2)C(=O)N1 (racemic) [Compound 354, Rac-N-{5-chloro-3-[1-(4-{4-[(1-{5-[(3R)-2,6-dioxopiperidin-3-yl]pyridin-2-yl}piperidin-4-yl)methyl]piperazin-1-yl}-2,5-difluorophenyl)-3-(pyridin-4-yl)-1H-pyrazol-4-yl]-2-fluorophenyl}pyrrolidine-1-sulfonamide]
10 to 50 | 30 to 70 | 10 to 50 | > 70 | > 500 | 30 to 70 | > 500 | 30 to 70 |  |  |  |  |  |  |  |  | O=C1CC[C@@H](c2ccc(N3CCC(CN4CCN(c5ccc(-n6cc(-c7cc(Cl)cc(NS(=O)(=O)N8CCCC8)c7F)c(-c7ccncc7)n6)cc5)CC4)CC3)cc2F)C(=O)N1 [Compound 384, N-{5-chloro-3-[1-(4-{4-[(1-{4-[(3S)-2,6-dioxopiperidin-3-yl]-3-fluorophenyl}piperidin-4-yl)methyl]piperazin-1-yl}phenyl)-3-(pyridin-4-yl)-1H-pyrazol-4-yl]-2-fluorophenyl}pyrrolidine-1-sulfonamide]
< 10 | > 70 | < 10 | > 70 | 10 to 50 | 30 to 70 | < 10 | 30 to 70 |  |  |  |  |  |  |  |  | O=C1CCC(c2ccc(N3CCC(CN4CCN(c5ccc(-n6cc(-c7cc(Cl)cc(NS(=O)(=O)N8CC(F)C8)c7F)c(-c7ccncc7)n6)c(F)c5)CC4)CC3)nc2)C(=O)N1 (racemic) [Compound 337, Rac-N-{5-chloro-3-[1-(4-{4-[(1-{5-[(3R)-2,6-dioxopiperidin-3-yl]pyridin-2-yl}piperidin-4-yl)methyl]piperazin-1-yl}-2-fluorophenyl)-3-(pyridin-4-yl)-1H-pyrazol-4-yl]-2-fluorophenyl}-3-fluoroazetidine-1-sulfonamide]
